# Laboratory results: patent US20130072430A1, “METHODS FOR TREATMENT OR PROPHYLAXIS OF KIDNEY OR LIVER DYSFUNCTION” (NPS PHARMACEUTICALS, INC., priority 2010, published 2013)
# Test system: Human patients with short bowel syndrome
# Experiment: Example 2: liver biomarkers (albumin, gamma glutamyl transferase, total bilirubin, ALT, AST, ALP) in short bowel syndrome patients, every four weeks for 24 weeks
# Type: in vivo
# Conditions: 0.05 mg/kg/d; for Gamma Glutamyl Transferase Change from Baseline, Median / Gamma Glutamyl Transferase Observed Value, Mean / Gamma Glutamyl Transferase Observed Value, Median / ALKALINE PHOSPHATASE Change from Baseline, Median / ALT Change from Baseline, Mean / ALT Change from Baseline, Median / ALT Observed Value, Mean / ALT Observed Value, Median / AST Change from Baseline, Mean / AST Change from Baseline, Median / AST Observed Value, Mean / AST Observed Value, Median / Albumin Change from Baseline, Mean / Albumin Change from Baseline, Median / Albumin Observed Value, Mean / Albumin Observed Value, Median / Alkaline Phosphatase Change from Baseline, Mean / Alkaline Phosphatase Observed Value, Mean / Alkaline Phosphatase Observed Value, Median / Bilirubin Change from Baseline, Mean / Bilirubin Change from Baseline, Median / Bilirubin Observed Value, Mean / Bilirubin Observed Value, Median / Gamma Glutamyl Transferase Change from Baseline, Mean: n=40; for ALT >10% decrease from Baseline, % of subjects / ALT >10% decrease from Baseline, n subjects / ALT >10% increase from Baseline, % of subjects / ALT >10% increase from Baseline, n subjects / ALT Within 10% of Baseline, % of subjects / ALT Within 10% of Baseline, n subjects / AST >10% decrease from Baseline, % of subjects / AST >10% decrease from Baseline, n subjects / AST >10% increase from Baseline, % of subjects / AST >10% increase from Baseline, n subjects / AST Within 10% of Baseline, % of subjects / AST Within 10% of Baseline, n subjects / Albumin >10% decrease from Baseline, % of subjects / Albumin >10% decrease from Baseline, n subjects / Albumin >10% increase from Baseline, % of subjects / Albumin >10% increase from Baseline, n subjects / Albumin Within 10% of Baseline, % of subjects / Albumin Within 10% of Baseline, n subjects / Alkaline Phosphatase >10% decrease from Baseline, % of subjects / Alkaline Phosphatase >10% decrease from Baseline, n subjects / Alkaline Phosphatase >10% increase from Baseline, % of subjects / Alkaline Phosphatase >10% increase from Baseline, n subjects / Alkaline Phosphatase Within 10% of Baseline, % of subjects / Alkaline Phosphatase Within 10% of Baseline, n subjects / Bilirubin >10% decrease from Baseline, % of subjects / Bilirubin >10% decrease from Baseline, n subjects / Bilirubin >10% increase from Baseline, % of subjects / Bilirubin >10% increase from Baseline, n subjects / Bilirubin Within 10% of Baseline, % of subjects / Bilirubin Within 10% of Baseline, n subjects: m=40
# Experimental: To further confirm the results of Example 1, a further study was conducted involving more individuals and additional diagnostic biomarkers. Human patients with short bowel syndrome were divided into two groups: a control group (43 total individuals) to receive placebo, and an experimental group (42 total individuals) to receive teduglutide at 0.05 mg/kg/day throughout the study. Patients were treated by subcutaneous injection of placebo or the appropriate dose of teduglutide. Known biomarkers of liver function were monitored every four weeks, for 24 weeks. The liver biomarkers tested included albumin, gamma glutamyl transferase, total bilirubin, ALT and AST and ALP. Before administration of placebo or teduglutide, diagnostic biomarker levels were tested to establish a baseline for each individual.
# To determine the effect of GLP-2 on the levels of the diagnostic biomarkers, the average level of each biomarker was measured for the placebo and teduglutide treated groups for each visit. Furthermore, the average change from baseline was calculated using the established baseline values. For FIGS. 17-28, p-values were calculated using the t-test.
# P values are provided, which were calculated for each distribution of biomarker changes for each week using the chi-squared test.
smiles,measurement,setting,value
CC[C@H](C)[C@H](NC(=O)[C@H](Cc1ccccc1)NC(=O)[C@H](CC(=O)O)NC(=O)[C@H](CCCNC(=N)N)NC(=O)[C@H](C)NC(=O)[C@H](C)NC(=O)[C@H](CC(C)C)NC(=O)[C@H](CC(N)=O)NC(=O)[C@H](CC(=O)O)NC(=O)[C@H](CC(C)C)NC(=O)[C@@H](NC(=O)[C@@H](NC(=O)[C@H](CC(N)=O)NC(=O)[C@H](CCSC)NC(=O)[C@H](CCC(=O)O)NC(=O)[C@H](CC(=O)O)NC(=O)[C@H](CO)NC(=O)[C@H](Cc1ccccc1)NC(=O)[C@H](CO)NC(=O)CNC(=O)[C@H](CC(=O)O)NC(=O)CNC(=O)[C@@H](N)Cc1c[nH]cn1)[C@@H](C)O)[C@@H](C)CC)C(=O)N[C@@H](CC(N)=O)C(=O)N[C@@H](Cc1c[nH]c2ccccc12)C(=O)N[C@@H](CC(C)C)C(=O)N[C@H](C(=O)N[C@@H](CCC(N)=O)C(=O)N[C@H](C(=O)N[C@@H](CCCCN)C(=O)N[C@H](C(=O)N[C@H](C(=O)N[C@@H](CC(=O)O)C(=O)O)[C@@H](C)O)[C@@H](C)CC)[C@@H](C)O)[C@@H](C)CC [teduglutide],"Gamma Glutamyl Transferase Change from Baseline, Median",Week 2,2.5 U/L
same,"Gamma Glutamyl Transferase Observed Value, Mean",Week 2,84.6 U/L
same,"Gamma Glutamyl Transferase Observed Value, Median",Week 2,52.5 U/L
same,"ALT >10% decrease from Baseline, % of subjects",Week 4,(65.0%)
same,"ALT >10% decrease from Baseline, n subjects",Week 4,26
same,"ALT >10% increase from Baseline, % of subjects",Week 4,(15.0%)
same,"ALT >10% increase from Baseline, n subjects",Week 4,6
same,"ALT Within 10% of Baseline, % of subjects",Week 4,(20.0%)
same,"ALT Within 10% of Baseline, n subjects",Week 4,8
same,"AST >10% decrease from Baseline, % of subjects",Week 4,(65.0%)
same,"AST >10% decrease from Baseline, n subjects",Week 4,26
same,"AST >10% increase from Baseline, % of subjects",Week 4,(20.0%)
same,"AST >10% increase from Baseline, n subjects",Week 4,8
same,"AST Within 10% of Baseline, % of subjects",Week 4,(15.0%)
same,"AST Within 10% of Baseline, n subjects",Week 4,6
same,"Albumin >10% decrease from Baseline, % of subjects",Week 4,(7.5%)
same,"Albumin >10% decrease from Baseline, n subjects",Week 4,3
same,"Albumin >10% increase from Baseline, % of subjects",Week 4,(5.0%)
same,"Albumin >10% increase from Baseline, n subjects",Week 4,2
same,"Albumin Within 10% of Baseline, % of subjects",Week 4,(87.5%)
same,"Albumin Within 10% of Baseline, n subjects",Week 4,35
same,"Alkaline Phosphatase >10% decrease from Baseline, % of subjects",Week 4,(55.0%)
same,"Alkaline Phosphatase >10% decrease from Baseline, n subjects",Week 4,22
same,"Alkaline Phosphatase >10% increase from Baseline, % of subjects",Week 4,(5.0%)
same,"Alkaline Phosphatase >10% increase from Baseline, n subjects",Week 4,2
same,"Alkaline Phosphatase Within 10% of Baseline, % of subjects",Week 4,(40.0%)
same,"Alkaline Phosphatase Within 10% of Baseline, n subjects",Week 4,16
same,"Bilirubin >10% decrease from Baseline, % of subjects",Week 4,(47.5%)
same,"Bilirubin >10% decrease from Baseline, n subjects",Week 4,19
same,"Bilirubin >10% increase from Baseline, % of subjects",Week 4,(35.0%)
same,"Bilirubin >10% increase from Baseline, n subjects",Week 4,14
same,"Bilirubin Within 10% of Baseline, % of subjects",Week 4,(17.5%)
same,"Bilirubin Within 10% of Baseline, n subjects",Week 4,7
same,"ALKALINE PHOSPHATASE Change from Baseline, Median",Week 4,−15.5 U/L
same,"ALT Change from Baseline, Mean",Week 4,−9.2 U/L
same,"ALT Change from Baseline, Median",Week 4,−7 U/L
same,"ALT Observed Value, Mean",Week 4,34.9 U/L
same,"ALT Observed Value, Median",Week 4,29 U/L
same,"AST Change from Baseline, Mean",Week 4,−3.5 U/L
same,"AST Change from Baseline, Median",Week 4,−5 U/L
same,"AST Observed Value, Mean",Week 4,29.1 U/L
same,"AST Observed Value, Median",Week 4,26.5 U/L
same,"Albumin Change from Baseline, Mean",Week 4,-0.7 g/L
same,"Albumin Change from Baseline, Median",Week 4,-1 g/L
same,"Albumin Observed Value, Mean",Week 4,41.7 g/L
same,"Albumin Observed Value, Median",Week 4,42 g/L
same,"Alkaline Phosphatase Change from Baseline, Mean",Week 4,−20.5 U/L
same,"Alkaline Phosphatase Observed Value, Mean",Week 4,115.8 U/L
same,"Alkaline Phosphatase Observed Value, Median",Week 4,101 U/L
same,"Bilirubin Change from Baseline, Mean",Week 4,-1.10 µmol/L
same,"Bilirubin Change from Baseline, Median",Week 4,-1.5 µmol/L
same,"Bilirubin Observed Value, Mean",Week 4,11.31 µmol/L
same,"Bilirubin Observed Value, Median",Week 4,9.55 µmol/L
same,"Gamma Glutamyl Transferase Change from Baseline, Mean",Week 4,1.7 U/L
same,"Gamma Glutamyl Transferase Change from Baseline, Median",Week 4,−0.5 U/L
same,"Gamma Glutamyl Transferase Observed Value, Mean",Week 4,78.9 U/L
same,"Gamma Glutamyl Transferase Observed Value, Median",Week 4,53.5 U/L
same,"ALT >10% decrease from Baseline, % of subjects",Week 8,(65.0%)
same,"ALT >10% decrease from Baseline, n subjects",Week 8,26
same,"ALT >10% increase from Baseline, % of subjects",Week 8,(17.5%)
same,"ALT >10% increase from Baseline, n subjects",Week 8,7
same,"ALT Within 10% of Baseline, % of subjects",Week 8,(17.5%)
same,"ALT Within 10% of Baseline, n subjects",Week 8,7
same,"AST >10% decrease from Baseline, % of subjects",Week 8,(60.0%)
same,"AST >10% decrease from Baseline, n subjects",Week 8,24
same,"AST >10% increase from Baseline, % of subjects",Week 8,(20.0%)
same,"AST >10% increase from Baseline, n subjects",Week 8,8
same,"AST Within 10% of Baseline, % of subjects",Week 8,(20.0%)
same,"AST Within 10% of Baseline, n subjects",Week 8,8
same,"Albumin >10% decrease from Baseline, % of subjects",Week 8,(2.5%)
same,"Albumin >10% decrease from Baseline, n subjects",Week 8,1
same,"Albumin >10% increase from Baseline, % of subjects",Week 8,(2.5%)
same,"Albumin >10% increase from Baseline, n subjects",Week 8,1
same,"Albumin Within 10% of Baseline, % of subjects",Week 8,(95.0%)
same,"Albumin Within 10% of Baseline, n subjects",Week 8,38
same,"Alkaline Phosphatase >10% decrease from Baseline, % of subjects",Week 8,(62.5%)
same,"Alkaline Phosphatase >10% decrease from Baseline, n subjects",Week 8,25
same,"Alkaline Phosphatase >10% increase from Baseline, % of subjects",Week 8,(5.0%)
same,"Alkaline Phosphatase >10% increase from Baseline, n subjects",Week 8,2
same,"Alkaline Phosphatase Within 10% of Baseline, % of subjects",Week 8,(32.5%)
same,"Alkaline Phosphatase Within 10% of Baseline, n subjects",Week 8,13
same,"Bilirubin >10% decrease from Baseline, % of subjects",Week 8,(50.0%)
same,"Bilirubin >10% decrease from Baseline, n subjects",Week 8,20
same,"Bilirubin >10% increase from Baseline, % of subjects",Week 8,(25.0%)
same,"Bilirubin >10% increase from Baseline, n subjects",Week 8,10
same,"Bilirubin Within 10% of Baseline, % of subjects",Week 8,(25.0%)
same,"Bilirubin Within 10% of Baseline, n subjects",Week 8,10
same,"ALKALINE PHOSPHATASE Change from Baseline, Median",Week 8,−18.5 U/L
same,"ALT Change from Baseline, Mean",Week 8,−10.2 U/L
same,"ALT Change from Baseline, Median",Week 8,−5.5 U/L
same,"ALT Observed Value, Mean",Week 8,33.9 U/L
same,"ALT Observed Value, Median",Week 8,26 U/L
same,"AST Change from Baseline, Mean",Week 8,−5.1 U/L
same,"AST Change from Baseline, Median",Week 8,−5 U/L
same,"AST Observed Value, Mean",Week 8,27.5 U/L
same,"AST Observed Value, Median",Week 8,23.5 U/L
same,"Albumin Change from Baseline, Mean",Week 8,-0.7 g/L
same,"Albumin Change from Baseline, Median",Week 8,-1 g/L
same,"Albumin Observed Value, Mean",Week 8,41.7 g/L
same,"Albumin Observed Value, Median",Week 8,42 g/L
same,"Alkaline Phosphatase Change from Baseline, Mean",Week 8,−24.3 U/L
same,"Alkaline Phosphatase Observed Value, Mean",Week 8,112.0 U/L
same,"Alkaline Phosphatase Observed Value, Median",Week 8,94 U/L
same,"Bilirubin Change from Baseline, Mean",Week 8,-1.60 µmol/L
same,"Bilirubin Change from Baseline, Median",Week 8,-0.95 µmol/L
same,"Bilirubin Observed Value, Mean",Week 8,10.81 µmol/L
same,"Bilirubin Observed Value, Median",Week 8,7.75 µmol/L
same,"Gamma Glutamyl Transferase Change from Baseline, Mean",Week 8,−5.7 U/L
